Experimental data: US20150005252A1, “COMBINATION THERAPY FOR THE TREATMENT OF CANCER” (TILTAN PHARMA LTD., priority 2012, published 2015)

System: Mouse pancreatic-adenocarcinoma cell-line PANC02
Assay: Orthotopic PANC02 pancreatic tumor model in mice, IP treatment, tumors excised and weighed on Day 18
Type: in vivo
Procedure: Total study duration was 18 days (Treatment period: 14 days, i.e. two weekly treatment schedules). Tumour cells inoculation day was registered as “Day 1”. The compositions were administered IP six days per week starting on Day 4.
Tumor Cells: Mouse pancreatic-adenocarcinoma cell-line PANC02 (a kind gift from Dr A. Marten, University of Heidelberg, Germany).
CB6F1 female mice, 21.1 g average body weight, 10 mice per treatment group.
Five test groups were conducted, each administered with a different treatment composition and schedule as detailed in Tables 1 and 2 below.
Treatment Groups were administered with either vehicle alone (Group 1), a combination of TL-118 and Gemcitabine (Groups 2 and 3), Gemcitabine alone 9 Group 4) and TL-118 alone (Group 5).
• In Groups 2 and 5 the 1st day of TL-118 was Wed. while for Group 3 1st day of TL-118 was Thur. No treatment was given on Sat (see also Table 3 below).
In Group 2 the treatment started with TL-118 and Gemcitabine was administered on the following day while in Group 3 the treatment started with Gemcitabine administration then TL-118 initiation on the following day (see Table 3 below).
The cells were removed from flasks using trypsin. 60 million (60×10^6) cells were counted and re-suspended in 4.5 ml phosphate buffered saline. Before cell spin-down, cells were strained through cell strainer according to the following procedure: • 1. Strainer was placed on 50 ml tube; • 2. Strainer was washed with 5 ml phosphate buffered saline; • 3. Cells detached from flasks in RPMI growth medium were poured over strainer; • 4. Strainer was washed with 5 ml phosphate buffered saline.
Tumor cells (4×10^5 cells, in 30 μl, per animal) are injected into the pancreas using needle 30 G. Tumor cells inoculation to animals was performed under anesthesia (Ketamine 85 mg/kg & Xylasine 5 mg/kg).
Compositions were administered IP using needle 27 G. Compositions were administered daily from Day 4 for duration of […] (see Table I). Body weights measurements (twice weekly) were used for dosing volume calculations from recent measurement. […]

`Nc1ccn([C@@H]2O[C@H](CO)[C@@H](O)C2(F)F)c(=O)n1` [Gemcitabine, 4-amino-1-(2-deoxy-2,2-difluoro-β-D-erythro-pentofuranosyl)pyrimidin-2(1H)-on] was tested, and the “representative tumors found at the end of treatment schedule” value (FIGS. 5A-5E, compared with large tumors in vehicle Group 1) was “smaller volume tumors”, the “End Result Effect: tumor size relative to vehicle” value (Table 3, end of study, vehicle: very large tumors) was “small tumors relative” and the “percentage of tumor bearing animals” value (end of study (Day 18), CB6F1 female mice, IP, FIG. 1) was “about 80%”.
